The structures appear in SMILES notation.

The target of the experiment is T1, chicken gizzard smooth muscle myosin subfragment-1 chemically crosslinked to cardiac or skeletal actin (Gallus gallus, UniProt P10587).
T1 construct: chicken gizzard smooth muscle myosin subfragment-1; from tissue; host or cells: chicken gizzard
T1 sequence (P02607 2-151): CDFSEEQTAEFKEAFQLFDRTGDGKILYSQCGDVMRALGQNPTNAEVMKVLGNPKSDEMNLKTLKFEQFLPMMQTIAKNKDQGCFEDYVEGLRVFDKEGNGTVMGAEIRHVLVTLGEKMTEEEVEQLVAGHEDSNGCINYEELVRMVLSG
T1 sequence (P10587 84-789): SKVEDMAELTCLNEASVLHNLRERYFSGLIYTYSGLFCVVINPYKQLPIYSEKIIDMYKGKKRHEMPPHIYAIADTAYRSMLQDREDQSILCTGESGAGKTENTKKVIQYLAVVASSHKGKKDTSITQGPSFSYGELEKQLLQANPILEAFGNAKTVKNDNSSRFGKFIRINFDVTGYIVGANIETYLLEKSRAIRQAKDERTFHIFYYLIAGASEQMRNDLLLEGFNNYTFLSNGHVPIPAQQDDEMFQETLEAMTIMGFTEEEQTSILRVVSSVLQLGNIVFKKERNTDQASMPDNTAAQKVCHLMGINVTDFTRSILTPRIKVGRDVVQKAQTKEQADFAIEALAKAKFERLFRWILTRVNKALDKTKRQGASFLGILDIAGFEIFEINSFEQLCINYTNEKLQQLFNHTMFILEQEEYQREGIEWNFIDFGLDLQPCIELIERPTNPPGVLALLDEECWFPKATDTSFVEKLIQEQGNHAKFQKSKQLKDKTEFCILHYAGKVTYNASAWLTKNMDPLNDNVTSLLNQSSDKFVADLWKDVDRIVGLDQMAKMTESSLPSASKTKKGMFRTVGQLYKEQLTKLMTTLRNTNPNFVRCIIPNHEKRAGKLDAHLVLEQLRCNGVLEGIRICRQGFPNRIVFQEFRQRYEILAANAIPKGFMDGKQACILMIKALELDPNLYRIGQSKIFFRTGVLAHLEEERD
Briefly: Smooth muscle myosin ATPase dose response assay (pyruvate kinase/horseradish peroxidase/pyruvate oxidase-coupled, amplex red fluorescence). It counts as biochemical. The following applies: read-out: IC50 Arithmetic Mean. A digest of the protocol:
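Readout is amplex red signal from coupled ATPase of actin-crosslinked gizzard myosin S1 (0.15 mM ATP, 12 mM K-PIPES, pH 7.00). IC50 is the half-maximal activity point of a four-parameter Hill fit.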
In the case of `CC1(C)OCC(CNC(=O)c2cc(F)c(-c3cn[nH]c3)nc2NCCc2cccc(F)c2)CO1` [N-[(2,2-dimethyl(1,3-dioxan-5-yl))methyl](5-fluoro-2-{[2-(3-fluorophenyl)ethyl]amino}-6-pyrazol-4-yl(3-pyridyl))carboxamide], the IC50 (in general, the concentration that inhibits the measured activity by half) is 0.927 µM. Regarding `CC1(C)OCC(CNC(=O)c2ccc(-c3ccccc3C#N)nc2NCCc2cccc(F)c2)CO1` [N-[(2,2-dimethyl(1,3-dioxan-5-yl))methyl](6-(2-cyanophenyl)-2-{[2-(3-fluorophenyl)ethyl]amino}(3-pyridyl))carboxamide], the IC50 worked out at 1.02 µM. Then `N#Cc1ccccc1-c1ccc(C(=O)NCc2cccnc2N)c(NCCc2cccc(F)c2)n1` [N-[(2-amino(3-pyridyl))methyl](6-(2-cyanophenyl)-2-{[2-(3-fluorophenyl)ethyl]amino}(3-pyridyl))carboxamide], with 0.022 µM; and `N#Cc1ccccc1-c1ccc(C(=O)NCc2cccnc2Cl)c(NCCc2cccc(F)c2)n1` [N-[(2-chloro(3-pyridyl))methyl](6-(2-cyanophenyl)-2-{[2-(3-fluorophenyl)ethyl]amino}(3-pyridyl))carboxamide], with 0.072 µM. Then `CC(C)(C)OC(=O)NCCc1ncccc1CNC(=O)c1ccc(-c2ccccc2C#N)nc1NCCc1cccc(F)c1` [N-[(2-{2-[(tert-butoxy)carbonylamino]ethyl}(3-pyridyl))methyl](6-(2-cyanophenyl)-2-{[2-(3-fluorophenyl)ethyl]amino}(3-pyridyl))carboxamide], with 0.47 µM; and `O=C(NCc1ccc(-c2ccccc2)nc1NCCc1cccc(F)c1)Nc1cccnc1` [N-[(2-{[2-(3-fluorophenyl)ethyl]amino}-6-phenyl(3-pyridyl))methyl](3-pyridylamino)carboxamide], with 71 µM; and `Cc1cc(C(=O)NCc2cccnc2CNC(=O)OC(C)(C)C)c(NCCc2cccc(F)c2)nc1-c1cnn(C)c1` [N-[(2-{[(tert-butoxy)carbonylamino]methyl}(3-pyridyl))methyl](2-{[2-(3-fluorophenyl)ethyl]amino}-5-methyl-6-(1-methylpyrazol-4-yl)(3-pyridyl))carboxamide], with 1.12 µM. Then `CC(C)(C)OC(=O)NCc1ncccc1CNC(=O)c1ccc(-c2cnn(CCO)c2)nc1NCCc1cccc(F)c1` [N-[(2-{[(tert-butoxy)carbonylamino]methyl}(3-pyridyl))methyl](2-{[2-(3-fluorophenyl)ethyl]amino}-6-[1-(2-hydroxyethyl)pyrazol-4-yl](3-pyridyl))carboxamide], with 15 µM; and `Cn1cc(-c2nc(NCCc3cccc(F)c3)c(C(=O)NCc3cccnc3CNC(=O)OC(C)(C)C)cc2Cl)cn1` [N-[(2-{[(tert-butoxy)carbonylamino]methyl}(3-pyridyl))methyl](5-chloro-2-{[2-(3-fluorophenyl)ethyl]amino}-6-(1-methylpyrazol-4-yl)(3-pyridyl))carboxamide], with 0.414 µM; and `Cn1cc(-c2nc(NCCc3cccc(F)c3)c(C(=O)NCc3cccnc3CNC(=O)OC(C)(C)C)cc2C#N)cn1` [N-[(2-{[(tert-butoxy)carbonylamino]methyl}(3-pyridyl))methyl](5-cyano-2-{[2-(3-fluorophenyl)ethyl]amino}-6-(1-methylpyrazol-4-yl)(3-pyridyl))carboxamide], with 0.75 µM. As for `CC(C)(C)OC(=O)NCc1ncccc1CNC(=O)c1cc(C#N)c(-c2cn[nH]c2)nc1NCCc1cccc(F)c1` [N-[(2-{[(tert-butoxy)carbonylamino]methyl}(3-pyridyl))methyl](5-cyano-2-{[2-(3-fluorophenyl)ethyl]amino}-6-pyrazol-4-yl(3-pyridyl))carboxamide], the IC50 was found to be 1 µM. For `Cn1cc(-c2nc(NCCc3cccc(F)c3)c(C(=O)NCc3cccnc3CNC(=O)OC(C)(C)C)cc2F)cn1` [N-[(2-{[(tert-butoxy)carbonylamino]methyl}(3-pyridyl))methyl](5-fluoro-2-{[2-(3-fluorophenyl)ethyl]amino}-6-(1-methylpyrazol-4-yl)(3-pyridyl))carboxamide], the IC50 was 0.388 µM. Regarding `CC(C)(C)OC(=O)NCc1ncccc1CNC(=O)c1cc(F)c(-c2ccccn2)nc1NCCc1cccc(F)c1` [N-[(2-{[(tert-butoxy)carbonylamino]methyl}(3-pyridyl))methyl](5-fluoro-2-{[2-(3-fluorophenyl)ethyl]amino}-6-(2-pyridyl)(3-pyridyl))carboxamide], the IC50 came out at 3.66 µM. With `CC(C)(C)OC(=O)NCc1ncccc1CNC(=O)c1cc(F)c(-c2cn[nH]c2)nc1NCCc1cccc(F)c1` [N-[(2-{[(tert-butoxy)carbonylamino]methyl}(3-pyridyl))methyl](5-fluoro-2-{[2-(3-fluorophenyl)ethyl]amino}-6-pyrazol-4-yl(3-pyridyl))carboxamide] the figure was 0.488 µM; with `CC(C)(C)OC(=O)NCc1ncccc1CNC(=O)c1ccc(-c2ccccc2C#N)nc1NCCc1cccc(F)c1` [N-[(2-{[(tert-butoxy)carbonylamino]methyl}(3-pyridyl))methyl](6-(2-cyanophenyl)-2-{[2-(3-fluorophenyl)ethyl]amino}(3-pyridyl))carboxamide], 1.21 µM; with `Cc1cc(C(=O)NCc2cccnc2CNC(=O)OC(C)(C)C)c(NCCc2cccc(F)c2)nc1-c1ccccc1C#N` [N-[(2-{[(tert-butoxy)carbonylamino]methyl}(3-pyridyl))methyl](6-(2-cyanophenyl)-2-{[2-(3-fluorophenyl)ethyl]amino}-5-methyl(3-pyridyl))carboxamide], 4.25 µM. With `CC(C)(C)OC(=O)NCc1ncccc1CNC(=O)c1cc(F)c(-c2ccccc2C#N)nc1NCCc1cccc(F)c1` [N-[(2-{[(tert-butoxy)carbonylamino]methyl}(3-pyridyl))methyl](6-(2-cyanophenyl)-5-fluoro-2-{[2-(3-fluorophenyl)ethyl]amino}(3-pyridyl))carboxamide] the figure was 5.36 µM. With `CN[C@H](C)CNC(=O)c1ccc(-c2ccccc2C#N)nc1NCCc1cccc(F)c1` [N-[(2R)-2-(methylamino)propyl](6-(2-cyanophenyl)-2-{[2-(3-fluorophenyl)ethyl]amino}(3-pyridyl))carboxamide] the figure was 1.89 µM; with `CN[C@@H](C)CNC(=O)c1ccc(-c2ccccc2C#N)nc1NCCc1cccc(F)c1` [N-[(2S)-2-(methylamino)propyl](6-(2-cyanophenyl)-2-{[2-(3-fluorophenyl)ethyl]amino}(3-pyridyl))carboxamide], 0.944 µM. As for `N#Cc1ccccc1-c1ccc(C(=O)NCc2ccc(F)c(F)c2)c(NCCc2cccc(F)c2)n1` [N-[(3,4-difluorophenyl)methyl](6-(2-cyanophenyl)-2-{[2-(3-fluorophenyl)ethyl]amino}(3-pyridyl))carboxamide], the IC50 is 1.98 µM.

Regarding `N#Cc1ccccc1-c1ccc(C(=O)NCc2ccc(N)cn2)c(NCCc2cccc(F)c2)n1` [N-[(5-amino(2-pyridyl))methyl](6-(2-cyanophenyl)-2-{[2-(3-fluorophenyl)ethyl]amino}(3-pyridyl))carboxamide], the IC50 is 0.021 µM. With `CC(C)(C)OC(=O)NCc1ccc(CNC(=O)c2ccc(-c3ccccc3C#N)nc2NCCc2cccc(F)c2)nc1` [N-[(5-{[(tert-butoxy)carbonylamino]methyl}(2-pyridyl))methyl](6-(2-cyanophenyl)-2-{[2-(3-fluorophenyl)ethyl]amino}(3-pyridyl))carboxamide] the figure was 68.6 µM; with `N#Cc1ccccc1-c1ccc(C(=O)NCc2ccc(N)nc2)c(NCCc2cccc(F)c2)n1` [N-[(6-amino(3-pyridyl))methyl](6-(2-cyanophenyl)-2-{[2-(3-fluorophenyl)ethyl]amino}(3-pyridyl))carboxamide], 0.026 µM; with `O=C(NCc1cccc(Br)n1)c1ccc(-c2cn[nH]c2)nc1NCCc1cccc(F)c1` [N-[(6-bromo(2-pyridyl))methyl](2-{[2-(3-fluorophenyl)ethyl]amino}-6-pyrazol-4-yl(3-pyridyl))carboxamide], 0.117 µM.

Regarding `N#Cc1ccccc1-c1ccc(C(=O)NCc2cccc(Br)n2)c(NCCc2cccc(F)c2)n1` [N-[(6-bromo(2-pyridyl))methyl](6-(2-cyanophenyl)-2-{[2-(3-fluorophenyl)ethyl]amino}(3-pyridyl))carboxamide], the IC50 was 0.233 µM. With `N#Cc1ccccc1-c1ccc(C(=O)NCc2ccc(Cl)nc2)c(NCCc2cccc(F)c2)n1` [N-[(6-chloro(3-pyridyl))methyl](6-(2-cyanophenyl)-2-{[2-(3-fluorophenyl)ethyl]amino}(3-pyridyl))carboxamide] the figure was 1.79 µM; with `N#Cc1ccc(CNC(=O)c2ccc(-c3ccccc3)nc2NCCc2cccc(F)c2)cn1` [N-[(6-cyano(3-pyridyl))methyl](2-{[2-(3-fluorophenyl)ethyl]amino}-6-phenyl(3-pyridyl))carboxamide], 1.24 µM; with `N#Cc1ccccc1-c1ccc(C(=O)NCc2cccc(CNCCN)n2)c(NCCc2cccc(F)c2)n1` [N-[(6-{[(2-aminoethyl)amino]methyl}(2-pyridyl))methyl](6-(2-cyanophenyl)-2-{[2-(3-fluorophenyl)ethyl]amino}(3-pyridyl))carboxamide], 0.019 µM. With `N#Cc1ccccc1-c1ccc(C(=O)NC[C@H]2CCCCN2)c(NCCc2cccc(F)c2)n1` [N-[((2R)(2-piperidyl))methyl](6-(2-cyanophenyl)-2-{[2-(3-fluorophenyl)ethyl]amino}(3-pyridyl))carboxamide] the figure was 1.16 µM; with `CC(=O)N1CCCC[C@@H]1CNC(=O)c1ccc(-c2ccccc2C#N)nc1NCCc1cccc(F)c1` [N-[((2R)-1-acetyl(2-piperidyl))methyl](6-(2-cyanophenyl)-2-{[2-(3-fluorophenyl)ethyl]amino}(3-pyridyl))carboxamide], 2.68 µM; with `CC(=O)N1CC[C@@H]1CNC(=O)c1ccc(-c2ccccc2C#N)nc1NCCc1cccc(F)c1` [N-[((2R)-1-acetylazetidin-2-yl)methyl](6-(2-cyanophenyl)-2-{[2-(3-fluorophenyl)ethyl]amino}(3-pyridyl))carboxamide], 0.043 µM.

Source of the values: US7932270B2 (Cytokinetics, Inc., priority 2006, dated 2011).
